# Results reported in patent US5104862A, “Bethalactam elastase inhibitors containing phosphorous acid derivatives at the 4-position of the 2-azetidinone” (Merck & Co., Inc., priority 1991, dated 1992).
# Biological target: T1, human polymorphonuclear leukocyte elastase (human granulocyte elastase) (Homo sapiens, UniProt P08246)
# T1 construct: Crude extract of human polymorphonuclear leukocytes (PMN) containing elastase activity; endogenous in cells; host or cells: human polymorphonuclear leukocytes (crude extract)
# T1 sequence (P08246 30-267): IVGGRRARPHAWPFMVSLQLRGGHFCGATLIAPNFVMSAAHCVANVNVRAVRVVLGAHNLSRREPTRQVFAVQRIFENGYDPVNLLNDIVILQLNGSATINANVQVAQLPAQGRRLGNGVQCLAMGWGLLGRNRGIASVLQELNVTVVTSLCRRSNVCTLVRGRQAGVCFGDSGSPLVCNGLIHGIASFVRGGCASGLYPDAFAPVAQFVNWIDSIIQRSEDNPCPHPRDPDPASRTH
# Assay: Enzyme assay for inhibition of human polymorphonuclear leukocyte elastase via hydrolysis of Boc-AAPAN or Boc-AAPVN
# Assay type: biochemical
# Settings: crude extract of human PMN; 0.2 mM Boc-AAPAN or Boc-AAPVN; 0.05M TES buffer pH 7.5; read-out: kobs /I, second order rate constant for inactivation of the enzyme
# Description: Enzyme Assays for the Inhibition of Human Polymorphonuclear Leukocyte Elastase Via Hydrolysis of N-t-Boc-alanyl-alanyl-prolyl-alanine-p-nitroanilide (Boc-AAPAN) or N-t-Boc-alanyl-prolyl-valine-p-nitroanilide (Boc-AAPVN) Reagent
# 0.05M TES (N-tris[hydroxymethyl]methyl-2-amino-ethanesulfonic acid) Buffer, pH 7.5.
# 0.2 mM Boc-AAPAN or Boc-AAPVN.
# To prepare substrate, the solid was first dissolved in 10.0 ml DMSO. Buffer at pH 7.5 was then added to a final volume of 100 ml.
# Crude extract of human polymorphonuclear leukocytes (PMN) containing elastase activity.
# Inhibitors (azetidinones) to be tested dissolved in DMSO just before use.
# To 1.0 ml of 0.2 mM Boc-AAPAN in a cuvette, 0.01-0.1 ml of DMSO with or without inhibitor was added. After mixing, a measurement was taken at 410 mμ to detect any spontaneous hydrolysis due to presence of test compound. 0.05 Milliliters of PMN extract was then added and the ΔOD/min at 410 mμ was measured and recorded. Beckman model 35 spectrophotometer was used.
# The elastase activity in the crude PMN extract may vary from one preparation to another. A control of each new batch is run, and the volume added in the assay procedure is adjusted according to activity.
row,SMILES,kinact/KI
1,CCC[C@@H](NC(=O)N1C(=O)C(CC)(CC)[C@@H]1Oc1ccc(CP(=O)(O)c2ccccc2)cc1)c1ccc(C)cc1 [Example 2],1.2e+06 M⁻¹ s⁻¹
2,"C=CCP(=O)(Cc1ccc(O[C@@H]2N(C(=O)N[C@H](CCC)c3ccc(C)cc3)C(=O)C2(CC)CC)cc1)OCC (stereo partly drawn) [Example 3, (4S)-3,3-Diethyl-1-[(R)-α-n-propyl(4-methyl)-benzylaminocarbonyl]-4-[4-(allyl(ethoxyphosphinyl)methyl)phenoxy]-azetidin-2-one]",1.3e+06 M⁻¹ s⁻¹
3,"C=CCP(=O)(O)Cc1ccc(O[C@@H]2N(C(=O)N[C@H](CCC)c3ccc(C)cc3)C(=O)C2(CC)CC)cc1 [Example 4, (4S)-3,3-Diethyl-1-[(R)-α-n-propyl(4-methyl)-benzylaminocarbonyl]-4-[4-(allyl(hydroxyphosphinyl)methyl)phenoxy]-azetidin-2-one]",740000 M⁻¹ s⁻¹
4,"CCC[C@@H](NC(=O)N1C(=O)C(CC)(CC)[C@@H]1Oc1ccc(CP(C)(=O)O)cc1)c1ccc(C)cc1 [Example 6, (4S)-3,3-Diethyl-1-[(R)-α-n-propyl(4-methyl)-benzylaminocarbonyl]-4-[4-(methyl(hydroxyphosphinyl)methyl)phenoxy]-azetidin-2-one]",420000 M⁻¹ s⁻¹
5,"CCC[C@@H](NC(=O)N1C(=O)C(CC)(CC)[C@@H]1Oc1ccc(CP(=O)(O)CCC)cc1)c1ccc(C)cc1 [Example 8, (4S)-3,3-Diethyl-1-[(R)-α-n-propyl(4-methyl)-benzylaminocarbonyl]-4-[4-(n-propyl(hydroxyphosphinyl)methyl)-phenoxy]-azetidin-2-one]",910000 M⁻¹ s⁻¹
